In US20110160056A1, “Triazole compounds, the use thereof and preparations containing these compounds” (BASF SE, priority 2008, published 2011):

What was measured:
Botrytis cinerea = experiment: Activity against the gray mold pathogen in the microtiter test; assay type: cell-based; details: 168 h, 31 ppm active compound, absorption at 405 nm on day 7 after inoculation, relative to active compound-free control
Septoria tritici = experiment: Activity against the Septoria leaf blotch pathogen in the microtiter test; assay type: cell-based; details: Zymoseptoria tritici, 168 h; 31 ppm active compound; absorption at 405 nm on day 7 after inoculation; relative to active compound-free control (100%)
Protocol: The stock solution was pipetted into a microtiter plate (MTP) and diluted with water to the stated active compound concentration. An aqueous malt-based spore suspension of Septoria tritici was then added. The plates were placed in a water vapor-saturated chamber at temperatures of 18° C. Using an absorption photometer, the MTPs were measured at 405 nm on day 7 after the inoculation. The measured parameters were compared to the growth of the active compound-free control variant (100%) and the fungus- and active compound-free blank value to determine the relative growth in % of the pathogens in the individual active compounds.

Compound | relative pathogen growth at 31 ppm (Botrytis cinerea) | relative pathogen growth at 31 ppm (Septoria tritici)
Cc1cc(F)ccc1OCC(C(O)C(C)(C)C)n1cncn1 (stereo not drawn) [I.8] | ≤ 13% | ≤ 14%
CC(C)(C)C(O)C(COc1cccc(C(F)(F)F)c1F)n1cncn1 (stereo not drawn) [I.45] | ≤ 13% | ≤ 14%
CC(C)(C)C(O)C(COc1ccc(F)c(F)c1F)n1cncn1 (stereo not drawn) [I.40] | ≤ 13% | ≤ 14%
CC(C)(C)C(O)C(CCCCOc1cc(Cl)ccc1F)n1cncn1 (stereo not drawn) [I.12b, 8-(5-chloro-2-fluorophenoxy)-2,2-dimethyl-4-[1,2,4]triazol-1-yloctan-3-ol] | ≤ 13% | ≤ 14%
CC(C)(C)C(O)C(COc1ccc(Cl)cc1Br)n1cncn1 (stereo not drawn) [I.32] | ≤ 13% | 
